Assay results from PubChem BioAssay AID1963980 (Molecular Pharmacology Branch, DTP, NCI, 2024).
Where “and” joins values, the source holds several entries; their conditions need not be identical. Equal entries are not always repeated.

test system: 475296-252-R-J1-PDC spheroid viability; assay: Anticancer human tumor 475296-252-R-J1-PDC patient-derived rectal carcinoma cell line growth inhibition [PI3K]; conditions: compound 0.316 µM; stronger effect = lower value; spheroids with HUVEC and MSC
Text: Combinatorial screen of targeted agents with the PI3K inhibitors inavolisib, alpelisib, duvelisib, and copanlisib in multi-cell type tumor spheroids
A high-throughput screen of multi-cell type tumor spheroids was designed to identify active combinations of targeted small molecules and PI3K pathway inhibitors. Complex spheroids include a stromal component modeled by human endothelial cells (HUVEC) and fibroblasts modeled by human mesenchymal stem cells (MSCs). The concentration ranges selected for each drug and investigational agent were based upon clinically achievable concentrations if the clinical Cmax of the agent was known.
Compounds. The drugs and investigational agents: inavolisib (NSC800729), alpelisib (NSC765974), duvelisib (NSC772469), copanlisib (NSC816437), ipatasertib (NSC767898), afuresertib (NSC778305), talazoparib (NSC767125), sapanisertib (NSC764658), selumetinib (NSC741078), tovorafenib (DAY101, NSC766906), vemurafenib (NSC761431), ravoxertinib (NSC781343), sotorasib (NSC818433), MRTX1133 (NSC 836407), abemaciclib (NSC 768073), palbociclib (NSC758247), venetoclax (NSC 766270), SY5609 (NSC837396), enzalutamide (NSC755605), and darolutamide (NSC825331), were obtained from the National Cancer Institute (NCI) Developmental Therapeutics Program Chemical Repository. The FDA-approved anticancer drug set is available from the NCI Developmental Therapeutics Program. […] The stock solutions were prepared in dimethyl sulfoxide (DMSO, Sigma-Aldrich, St. Louis, MO, cat. D2650) at 800-fold the tested concentration and stored at -70 degrees C prior to their use. All drugs and investigational agents were tested over a range starting from a high concentration at or near the clinical Cmax and decreasing in half-log increments. If the clinical Cmax for an agent had not been determined, the highest concentration tested was 10 microM.
Cell Culture. All cells were maintained in an incubator at 37 degrees C and 5% CO2 with 95% humidity. The PDC lines were cultured according to standard operating procedures established by the NCI PDMR (https://pdmr.cancer.gov/sops/default.htm). All PDCs were thawed and cultured in Matrigel-coated flasks prepared with a working solution of 1X Ham's F-12 nutrient mix, without supplementation (Invitrogen, Waltham, MA, cat. 11765054), 100 U/mL penicillin-streptomycin (Invitrogen, cat. 15140122), and 2.5% Matrigel (Corning Inc., Corning, NY, cat. 354248) for the first three passages. The 354836-022-R-J1-PDC, 475296-252-R-J1-PDC, and 997726-040-R-J2-PDC lines were cultured in 6A media, which includes advanced DMEM/F-12 (Thermo Fisher Scientific, cat. 12634028), 10 mM HEPES (Thermo Fisher Scientific, cat. 15630080), 1X GlutaMAX supplement (Thermo Fisher Scientific, cat. 35050061), 0.1 mg/mL primocin (InvivoGen, San Diego, CA, cat. ant-pm-2), 10% defined fetal bovine serum, heat inactivated (HyClone Laboratories Inc., Logan, UT, cat. SH30070.03HI), 50% L-WRN conditioned media (ATCC, cat. CRL-3276), 1.25 mM N-Acetyl-L-cysteine (Sigma-Aldrich, cat. A9165), 10 mM nicotinamide (Sigma-Aldrich, cat. N0636), 1X B-27 supplement (Thermo Fisher Scientific, cat. 17504044), 1X N-2 supplement (Thermo Fisher Scientific, cat. 17502048), and 10 microM Y-27632 dihydrochloride (Tocris Bioscience, Bristol, United Kingdom, cat. 1254). The 624824-186-R-J2-PDC line was cultured in 6C/Colon 1B media, which includes all 6A media components plus 50 ng/mL human EGF recombinant protein (Thermo Fisher Scientific, cat. PHG0311). […]
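Also: spheroids exposed to agents for seven days before readout.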

**Q.** For `CC1(C)CCC(CN2CCN(c3ccc(C(=O)NS(=O)(=O)c4ccc(NCC5CCOCC5)c([N+](=O)[O-])c4)c(Oc4cnc5[nH]ccc5c4)c3)CC2)=C(c2ccc(Cl)cc2)C1`, which viability, T/C is on record?
**A.** The viability, T/C was 101% [middle of 4 runs].

**Q.** With `CC1(C)CCC(Nc2ncc(C(F)(F)F)c(-c3c[nH]c4c(P(C)(C)=O)c(C#N)ccc34)n2)CN1` (stereo not drawn) as the compound, how does the viability, T/C read?
**A.** The viability, T/C was 109% [middle of 4 runs].

**Q.** With `CCCS(=O)(=O)Nc1ccc(F)c(C(=O)c2c[nH]c3ncc(-c4ccc(Cl)cc4)cc23)c1F` as the compound, how does the viability, T/C read?
**A.** Its viability, T/C is 96.8% [middle of 4 runs].

**Q.** How did the viability, T/C turn out when `CCN1CCN(Cc2ccc(Nc3ncc(F)c(-c4cc(F)c5nc(C)n(C(C)C)c5c4)n3)nc2)CC1` was run?
**A.** The viability, T/C was 101% [middle of 4 runs].

**Q.** Which viability, T/C does the source give for `COc1c(OCCCN2CCOCC2)ccc2c3n(c(=NC(=O)c4cnc(N)nc4)nc12)CCN3` here?
**A.** Its viability, T/C is 71.5% [middle of 8 runs].

**Q.** For `C[C@@H](NC(=O)c1ncnc(N)c1Cl)c1ncc(C(=O)Nc2cc(C(F)(F)F)c(Cl)cn2)s1`, which viability, T/C is on record?
**A.** Its viability, T/C is 95.5% [middle of 4 runs].

**Q.** How did the viability, T/C turn out when `Cc1nc(NC(=O)N2CCCC2C(N)=O)sc1-c1ccnc(C(C)(C)C(F)(F)F)c1` (stereo not drawn) was run?
**A.** Its viability, T/C is 97% [middle of 8 runs].

**Q.** With `Cn1ncc(Cl)c1-c1cc(C(=O)NC(CN)Cc2cccc(F)c2)sc1Cl` (stereo not drawn) as the compound, how does the viability, T/C read?
**A.** Its viability, T/C is 68% [middle of 4 runs].

**Q.** With `Cn1nccc1Nc1nccc(-c2ccn(C(CO)c3ccc(Cl)c(F)c3)c(=O)c2)n1` (stereo not drawn) as the compound, how does the viability, T/C read?
**A.** The viability, T/C was 102% [middle of 4 runs].

same assay, conditions: compound 1 µM; stronger effect = lower value; spheroids with HUVEC and MSC

**Q.** With `CC(C)NCC(C(=O)N1CCN(c2ncnc3c2C(C)CC3O)CC1)c1ccc(Cl)cc1` (stereo not drawn) as the compound, how does the viability, T/C read?
**A.** The viability, T/C was 76.1% [middle of 4 runs].

**Q.** How did the viability, T/C turn out when `CC(Cn1ccc(-c2ccc(C#N)c(Cl)c2)n1)NC(=O)c1cc(C(C)O)[nH]n1` (stereo not drawn) was run?
**A.** Its viability, T/C is 105% [middle of 4 runs].

**Q.** For `CC(Nc1ccc2c(c1)OCCn1cc(N3C(=O)OCC3C(F)F)nc1-2)C(N)=O` (stereo not drawn), which viability, T/C is on record?
**A.** The viability, T/C was 81.1% [middle of 7 runs].

**Q.** `CC(Nc1ncnc2nc[nH]c12)c1cc2cccc(Cl)c2c(=O)n1-c1ccccc1` (stereo not drawn) was tested. Which viability, T/C did it give?
**A.** The viability, T/C was 102% [middle of 8 runs].

**Q.** Which viability, T/C does the source give for `CC1(C)CCC(CN2CCN(c3ccc(C(=O)NS(=O)(=O)c4ccc(NCC5CCOCC5)c([N+](=O)[O-])c4)c(Oc4cnc5[nH]ccc5c4)c3)CC2)=C(c2ccc(Cl)cc2)C1` here?
**A.** The viability, T/C was 101% [middle of 4 runs].

**Q.** With `CC1(C)CCC(Nc2ncc(C(F)(F)F)c(-c3c[nH]c4c(P(C)(C)=O)c(C#N)ccc34)n2)CN1` (stereo not drawn) as the compound, how does the viability, T/C read?
**A.** Its viability, T/C is 129% [middle of 4 runs].

**Q.** `CCCS(=O)(=O)Nc1ccc(F)c(C(=O)c2c[nH]c3ncc(-c4ccc(Cl)cc4)cc23)c1F` was tested. Which viability, T/C did it give?
**A.** The viability, T/C was 90.3% [middle of 4 runs].

**Q.** How did the viability, T/C turn out when `CCN1CCN(Cc2ccc(Nc3ncc(F)c(-c4cc(F)c5nc(C)n(C(C)C)c5c4)n3)nc2)CC1` was run?
**A.** The viability, T/C was 92.4% [middle of 4 runs].

**Q.** With `COc1c(OCCCN2CCOCC2)ccc2c3n(c(=NC(=O)c4cnc(N)nc4)nc12)CCN3` as the compound, how does the viability, T/C read?
**A.** The viability, T/C was 68% [middle of 8 runs].

**Q.** How did the viability, T/C turn out when `C[C@@H](NC(=O)c1ncnc(N)c1Cl)c1ncc(C(=O)Nc2cc(C(F)(F)F)c(Cl)cn2)s1` was run?
**A.** The viability, T/C was 101% [middle of 4 runs].

**Q.** How did the viability, T/C turn out when `Cc1nc(NC(=O)N2CCCC2C(N)=O)sc1-c1ccnc(C(C)(C)C(F)(F)F)c1` (stereo not drawn) was run?
**A.** The viability, T/C was 99.7% [middle of 8 runs].

**Q.** For `Cn1ncc(Cl)c1-c1cc(C(=O)NC(CN)Cc2cccc(F)c2)sc1Cl` (stereo not drawn), which viability, T/C is on record?
**A.** Its viability, T/C is 65.5% [middle of 4 runs].

**Q.** With `Cn1nccc1Nc1nccc(-c2ccn(C(CO)c3ccc(Cl)c(F)c3)c(=O)c2)n1` (stereo not drawn) as the compound, how does the viability, T/C read?
**A.** Its viability, T/C is 89.5% [middle of 4 runs].

same assay, conditions: compound 3 µM; stronger effect = lower value; spheroids with HUVEC and MSC

**Q.** Which viability, T/C does the source give for `Cn1cnc2c(F)c(Nc3ccc(Br)cc3Cl)c(C(=O)NOCCO)cc21` here?
**A.** The viability, T/C was 61.2% [middle of 4 runs].

same assay, conditions: compound 3.16 µM; stronger effect = lower value; spheroids with HUVEC and MSC

**Q.** `CC(C)NCC(C(=O)N1CCN(c2ncnc3c2C(C)CC3O)CC1)c1ccc(Cl)cc1` (stereo not drawn) was tested. Which viability, T/C did it give?
**A.** Its viability, T/C is 75.5% [middle of 4 runs].

**Q.** `CC(Cn1ccc(-c2ccc(C#N)c(Cl)c2)n1)NC(=O)c1cc(C(C)O)[nH]n1` (stereo not drawn) was tested. Which viability, T/C did it give?
**A.** The viability, T/C was 101% [middle of 4 runs].

**Q.** Which viability, T/C does the source give for `CC(Nc1ncnc2nc[nH]c12)c1cc2cccc(Cl)c2c(=O)n1-c1ccccc1` (stereo not drawn) here?
**A.** Its viability, T/C is 96.3% [middle of 8 runs].

**Q.** For `CC1(C)CCC(CN2CCN(c3ccc(C(=O)NS(=O)(=O)c4ccc(NCC5CCOCC5)c([N+](=O)[O-])c4)c(Oc4cnc5[nH]ccc5c4)c3)CC2)=C(c2ccc(Cl)cc2)C1`, which viability, T/C is on record?
**A.** The viability, T/C was 101% (2×) and 94.9% and 88%.

**Q.** With `CC1(C)CCC(Nc2ncc(C(F)(F)F)c(-c3c[nH]c4c(P(C)(C)=O)c(C#N)ccc34)n2)CN1` (stereo not drawn) as the compound, how does the viability, T/C read?
**A.** Its viability, T/C is 148% (2×) and 176% and 175%.
